A short description of this data set: Bulk density, tapped density and Carr Index (flowability) of powders and granules. The data set is classed as physicochemical. As to conditions: for Carr Index: 100×(1−BD/TD), greater than 25 indicates poor flowability. As for the experimental part:
The Carr Index is calculated by the formula 100×(1−BD/TD) and is used as an indication of the flowability.

Each structure is given as a SMILES string. Counter-ions that a name gives are not always drawn.

With `Cc1ncc(C[n+]2csc(CCO)c2C)c(N)n1` [Thiamine hydrochloride, thiamine hydrochloride], the “BD (bulk density)” value turned out to be 0.26 g/mL, the “TD (tapped density)” value was 0.46 g/mL and the “Carr Index” value amounted to 44.

`COc1ccc2cc([C@H](C)C(=O)O)ccc2c1` [Naproxen Sodium, naproxen sodium]: for the setting “appearance of powder”, the Description result was “very lumpy”. Also, the flowability result (in words, from Carr Index) was “poor flowability”.

Consider `Cc1ncc(CO)c(CO)c1O.Cl` [Pyridoxine Hydrochloride, pyridoxine hydrochloride], for which the “BD (bulk density)” value worked out at 0.44 g/mL, the “TD (tapped density)” value came to 0.62 g/mL and the “Carr Index” value came to 30.

These data come from US20220280462A1, “SOLID ORAL DOSAGE FORM COMPRISING NAPROXEN AND VITAMIN B1” (DSM IP ASSETS B.V., priority 2019, published 2022).
